US8063071B2 (GlaxoSmithKline, LLC, priority 2007, dated 2011)
Structures can show the parent of a compound that is named as a salt.

Key:
[1] = target: T1, Recombinant human IKKβ (residues 1-737) (Homo sapiens, UniProt O14920); assay: IKK2 assay (TR-FRET); type: biochemical; settings: ATP 1 μM final, read-out: pIC50 against IKK2 (converted)
T1 construct: Recombinant human IKKβ (residues 1-737); GST (C); made in house
T1 sequence (O14920 1-737): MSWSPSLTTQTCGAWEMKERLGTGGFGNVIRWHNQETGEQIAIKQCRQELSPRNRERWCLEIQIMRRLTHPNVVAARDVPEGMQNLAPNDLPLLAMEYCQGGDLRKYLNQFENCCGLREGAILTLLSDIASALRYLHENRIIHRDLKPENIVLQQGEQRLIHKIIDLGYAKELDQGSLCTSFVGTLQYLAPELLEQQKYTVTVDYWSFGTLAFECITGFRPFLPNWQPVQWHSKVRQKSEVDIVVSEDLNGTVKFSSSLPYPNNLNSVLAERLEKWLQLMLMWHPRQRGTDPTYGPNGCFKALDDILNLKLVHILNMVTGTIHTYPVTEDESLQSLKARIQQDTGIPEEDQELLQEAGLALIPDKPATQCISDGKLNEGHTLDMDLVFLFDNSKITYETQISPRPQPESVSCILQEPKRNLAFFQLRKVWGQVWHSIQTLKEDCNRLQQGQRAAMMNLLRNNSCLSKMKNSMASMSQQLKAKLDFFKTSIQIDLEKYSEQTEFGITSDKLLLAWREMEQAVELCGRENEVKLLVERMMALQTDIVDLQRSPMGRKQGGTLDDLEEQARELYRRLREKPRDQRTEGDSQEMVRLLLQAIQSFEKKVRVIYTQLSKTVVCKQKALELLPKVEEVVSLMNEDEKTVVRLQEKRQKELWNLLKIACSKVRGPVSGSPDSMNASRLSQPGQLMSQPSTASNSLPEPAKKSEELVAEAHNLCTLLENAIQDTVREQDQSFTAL
Outline: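 Baculovirus-expressed C-terminal GST-tagged IKKβ (0.5-5 nM final) in HEPES pH 7.4, MgCl2, CHAPS, DTT, BSA with 1.7% DMSO; 25 nM GST-IB substrate and 1 μM ATP, 15 min at room temperature. EDTA stop; phospho-Ser32/36 detected by Eu-antibody/APC-anti-GST TR-FRET, 665/620 nm ratio.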

[2] = system: human monocyte stimulated cytokine production (TNF-α); assay: Monocyte assay (LPS-stimulated TNF-α production); type: cell-based; settings: 24 h, 200 ng/mL LPS, TNF-α by ELISA
Outline: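 Human CD14+ monocytes were purified from blood and plated at 1×10^6 cells/mL in RPMI 1640 with 10% FBS. Compound was added 30 min before stimulation with 200 ng/mL LPS (0.1% DMSO final), followed by 24 hrs at 37 C. Supernatant TNF-α was measured by ELISA, and viability by trypan blue exclusion.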

Row | IC50 [1] [µM] | IC50 [2] [µM] | Structure (SMILES)
1 | ≤ 10 | ≤ 1.5 | CCS(=O)(=O)N1CCC(c2c[nH]c3c(C(N)=O)cc(-c4cccc(CNS(=O)(=O)C5CC5)c4)cc23)CC1 [Example 369, 5-(3-{[(cyclopropylsulfonyl)amino]methyl}phenyl)-3-[1-(ethylsulfonyl)-4-piperidinyl]-1H-indole-7-carboxamide]
2 | ≤ 10 | ≤ 1.5 | CCS(=O)(=O)N1CCC(c2c[nH]c3c(C(N)=O)cc(-c4cccc(CNS(=O)(=O)c5cc(Cl)ccc5Cl)c4)cc23)CC1 [Example 370, 5-[3-({[(2,5-dichlorophenyl)sulfonyl]amino}methyl)phenyl]-3-[1-(ethylsulfonyl)-4-piperidinyl]-1H-indole-7-carboxamide]
3 | ≤ 10 | ≤ 1.5 | CCS(=O)(=O)N1CCC(c2c[nH]c3c(C(N)=O)cc(-c4cccc(CNS(=O)(=O)c5ccc(Br)cc5)c4)cc23)CC1 [Example 371, 5-[3-({[(4-bromophenyl)sulfonyl]amino}methyl)phenyl]-3-[1-(ethylsulfonyl)-4-piperidinyl]-1H-indole-7-carboxamide]
4 | ≤ 10 | ≤ 1.5 | CCS(=O)(=O)N1CCC(c2c[nH]c3c(C(N)=O)cc(-c4cccc(CNS(=O)(=O)c5ccc(Cl)cc5)c4)cc23)CC1 [Example 372, 5-[3-({[(4-chlorophenyl)sulfonyl]amino}methyl)phenyl]-3-[1-(ethylsulfonyl)-4-piperidinyl]-1H-indole-7-carboxamide]
5 | ≤ 10 | ≤ 1.5 | CCS(=O)(=O)N1CCC(c2c[nH]c3c(C(N)=O)cc(-c4cccc(CNS(=O)(=O)c5cccc(F)c5)c4)cc23)CC1 [Example 373, 3-[1-(ethylsulfonyl)-4-piperidinyl]-5-[3-({[(3-fluorophenyl)sulfonyl]amino}methyl)phenyl]-1H-indole-7-carboxamide]
6 | ≤ 10 | > 1 | CCS(=O)(=O)N1CCC(c2c[nH]c3c(C(N)=O)cc(-c4cccc(CNS(=O)(=O)c5ccccc5Cl)c4)cc23)CC1 [Example 374, 5-[3-({[(2-chlorophenyl)sulfonyl]amino}methyl)phenyl]-3-[1-(ethylsulfonyl)-4-piperidinyl]-1H-indole-7-carboxamide]
7 | ≤ 10 | > 1 | CCS(=O)(=O)N1CCC(c2c[nH]c3c(C(N)=O)cc(-c4cccc(CNS(=O)(=O)c5cc(Cl)sc5Cl)c4)cc23)CC1 [Example 375, 5-[3-({[(2,5-dichloro-3-thienyl)sulfonyl]amino}methyl)phenyl]-3-[1-(ethylsulfonyl)-4-piperidinyl]-1H-indole-7-carboxamide]
8 | ≤ 10 | ≤ 1.5 | CCS(=O)(=O)N1CCC(c2c[nH]c3c(C(N)=O)cc(-c4cccc(CNS(=O)(=O)c5c(C)cccc5Cl)c4)cc23)CC1 [Example 376, 5-[3-({[(2-chloro-6-methylphenyl)sulfonyl]amino}methyl)phenyl]-3-[1-(ethylsulfonyl)-4-piperidinyl]-1H-indole-7-carboxamide]
9 | ≤ 10 | > 1 | CCS(=O)(=O)N1CCC(c2c[nH]c3c(C(N)=O)cc(-c4cccc(CNS(=O)(=O)c5cc(F)ccc5C)c4)cc23)CC1 [Example 377, 3-[1-(ethylsulfonyl)-4-piperidinyl]-5-[3-({[(5-fluoro-2-methylphenyl)sulfonyl]amino}methyl)phenyl]-1H-indole-7-carboxamide]
10 | ≤ 10 | > 1 | CCS(=O)(=O)N1CCC(c2c[nH]c3c(C(N)=O)cc(-c4cccc(CNS(=O)(=O)c5cn(C)c(C)n5)c4)cc23)CC1 [Example 378, 5-[3-({[(1,2-dimethyl-1H-imidazol-4-yl)sulfonyl]amino}methyl)phenyl]-3-[1-(ethylsulfonyl)-4-piperidinyl]-1H-indole-7-carboxamide]
11 | ≤ 10 | > 1 | CCS(=O)(=O)N1CCC(c2c[nH]c3c(C(N)=O)cc(-c4cccc(CNS(=O)(=O)c5ccccc5)c4)cc23)CC1 [Example 379, 3-[1-(ethylsulfonyl)-4-piperidinyl]-5-(3-{[(phenylsulfonyl)amino]methyl}phenyl)-1H-indole-7-carboxamide]
12 | ≤ 10 | ≤ 1.5 | CCS(=O)(=O)N1CCC(c2c[nH]c3c(C(N)=O)cc(-c4cccc(CNS(=O)(=O)c5ccc(F)cc5)c4)cc23)CC1 [Example 380, 3-[1-(ethylsulfonyl)-4-piperidinyl]-5-[3-({[(4-fluorophenyl)sulfonyl]amino}methyl)phenyl]-1H-indole-7-carboxamide]
13 | ≤ 10 | > 1 | CCc1cc(Br)ccc1S(=O)(=O)NCc1cccc(-c2cc(C(N)=O)c3[nH]cc(C4CCN(S(=O)(=O)CC)CC4)c3c2)c1 [Example 381, 5-[3-({[(4-bromo-2-ethylphenyl)sulfonyl]amino}methyl)phenyl]-3-[1-(ethylsulfonyl)-4-piperidinyl]-1H-indole-7-carboxamide]
14 | ≤ 10 | ≤ 1.5 | CCS(=O)(=O)N1CCC(c2c[nH]c3c(C(N)=O)cc(-c4cccc(CNS(=O)(=O)c5ccc(C(C)(C)C)cc5)c4)cc23)CC1 [Example 383, 5-{3-[({[4-(1,1-dimethylethyl)phenyl]sulfonyl}amino)methyl]phenyl}-3-[1-(ethylsulfonyl)-4-piperidinyl]-1H-indole-7-carboxamide]
15 | ≤ 10 | > 1 | CCS(=O)(=O)N1CCC(c2c[nH]c3c(C(N)=O)cc(-c4cccc(CNS(=O)(=O)c5cccc6nonc56)c4)cc23)CC1 [Example 385, 5-(3-{[(2,1,3-benzoxadiazol-4-ylsulfonyl)amino]methyl}phenyl)-3-[1-(ethylsulfonyl)-4-piperidinyl]-1H-indole-7-carboxamide]
16 | ≤ 10 | > 1 | CCS(=O)(=O)N1CCC(c2c[nH]c3c(C(N)=O)cc(-c4ccc(N5CCN(C)CC5=O)cc4)cc23)CC1 [Example 388, 3-[1-(ethylsulfonyl)-4-piperidinyl]-5-[4-(4-methyl-2-oxo-1-piperazinyl)phenyl]-1H-indole-7-carboxamide]
17 | ≤ 10 | > 1 | CCS(=O)(=O)N1CCC(c2c[nH]c3c(C(N)=O)cc(-c4ccc(N5CCN(C(C)=O)CC5)nc4)cc23)CC1 [Example 389, 5-[6-(4-acetyl-1-piperazinyl)-3-pyridinyl]-3-[1-(ethylsulfonyl)-4-piperidinyl]-1H-indole-7-carboxamide trifluoroacetate]
18 | ≤ 10 | > 1 | CCS(=O)(=O)N1CCC(c2c[nH]c3c(C(N)=O)cc(-c4ccc(CNOC)cc4)cc23)CC1 [Example 390, 3-[1-(ethylsulfonyl)-4-piperidinyl]-5-(4-{[(methyloxy)amino]methyl}phenyl)-1H-indole-7-carboxamide]
19 | ≤ 10 | > 1 | CCS(=O)(=O)N1CCC(c2c[nH]c3c(C(N)=O)cc(-c4csc(CN5CCC(N6CCCC6)CC5)c4)cc23)CC1 [Example 392, 3-[1-(ethylsulfonyl)-4-piperidinyl]-5-(5-{[4-(1-pyrrolidinyl)-1-piperidinyl]methyl}-3-thienyl)-1H-indole-7-carboxamide trifluoroacetate]
20 | ≤ 10 | > 1 | CCS(=O)(=O)N1CCC(c2c[nH]c3c(C(N)=O)cc(-c4csc(CN5CCC[C@H]5C(F)(F)F)c4)cc23)CC1 [Example 393, 3-[1-(ethylsulfonyl)-4-piperidinyl]-5-(5-{[(2S)-2-(trifluoromethyl)-1-pyrrolidinyl]methyl}-3-thienyl)-1H-indole-7-carboxamide trifluoroacetate]
21 | ≤ 10 | ≤ 1.5 | CC(C)S(=O)(=O)N1CCC(c2c[nH]c3c(C(N)=O)cc(-c4csc(CN5CCC[C@@H]5CO)c4)cc23)CC1 [Example 394, 5-(5-{[(2R)-2-(hydroxymethyl)-1-pyrrolidinyl]methyl}-3-thienyl)-3-{1-[(1-methylethyl)sulfonyl]-4-piperidinyl}-1H-indole-7-carboxamide]
22 | ≤ 10 | ≤ 1.5 | CC(C)S(=O)(=O)N1CCC(c2c[nH]c3c(C(N)=O)cc(-c4csc(CN5CC[C@H](O)C5)c4)cc23)CC1 [Example 395, 5-(5-{[(3S)-3-hydroxy-1-pyrrolidinyl]methyl}-3-thienyl)-3-{1-[(1-methylethyl)sulfonyl]-4-piperidinyl}-1H-indole-7-carboxamide]
